# Data taken from US7262171B1, “Use of rhamnolipids in wound healing, treating burn shock, atherosclerosis, organ transplants, depression, schizophrenia and cosmetics” (Paradigm Biomedical, Inc., priority 1998, dated 2007).
# Counter-ions that a name gives are not always drawn.
# Tests used:
# [1] = system: mice; details: cited from earlier work; for PCP-induced enhancement of immobility in the forced swimming test: doses that failed to produce antidepressant effects in control animals
# [2] = system: burn wounds; experiment: Topical treatment of burn wounds, 7% of body surface; details: for mean value of collagen tissue: sacrificed on 45th day, histopathology; for mean value of collagen concentration relative to group 1 D (placebo): placebo taken as 1100% (printed)
# [3] = system: venous ulcer; experiment: Open wound healing in a patient with incurable venous ulcer; assay type: in vivo, human; details: 1% BAC-3 ointment, twice daily during 41 days
# Experimental: The BAC-3 rhamnolipid was tested in the case of open wound healing, in a patient suffering around ten years from incurable venous ulcer. On the left leg, the patient had very thick layers of collagen with fibrotic lesions. […] Moreover, after treatment was finished, not only the collagen, but also the fibrotic lesions had disappeared as well. One year after the treatment, the treated skin lesions on the left leg appear normal, and all skin collagen and fibrotic layers had disappeared.
# [4] = system: burn wounds; experiment: Topical treatment of burn wounds, 15% of body surface; assay type: in vivo, Sprague-Dawley rats; details: 1% BAC-3 in ointment without chlorhexidine, started on 50th day after burning on open wounds; tapering regimen
# Experimental: Method of burning. […] (Producer: Veterinary Laboratory Inc. Lenexa, Kans.).
# Four rats were burned according to the described procedure using the wider opening in the Walker device (10×5 cm). All rats were treated from the beginning by placebo. After 50 days all burned rats had open wounds in average 2.3 cm at the neck, 1.3 cm in the middle and 1.8 cm at the tail.
# On the 50th day after burning, animals were treated with 1% BAC-3 in ointment without chlorhexidine hydrochloride using the following procedure:
# For the first 3 days, burn wounds were treated twice daily. After developing granulation tissue and the first sign of epithelization, animals were treated 3 days with 1% BAC-3 in ointment once daily. For the next four days, animals were treated every second day. After that wounds were treated every third day with 1% BAC-3 in ointment until the entire wound was re-epithelized. Re-epithelization was first completed at the middle of the wounds, then at the tails and finally at the necks. Whole epithelization in all animals was finished in 30 days.
# [5] = system: incision wounds; experiment: Tensile strength of incision wounds; assay type: in vivo, Sprague-Dawley rats; details: 0.1% BAC-3, 21 days after wounding, p<0.05 by ANOVA; FIG. 3
# Source text: Incision wounds. Dorsal midline incisions were made in anesthetized rats. The animals were clipped free of their fur and prepared with alcohol. A 5.0 cm, midline, full-thickness incision was made with a scalpel through the panniclus carnosus.
# The wounds were immediately closed with skin sutures spaced at a distance of 0.5 cm. Seven days later, all sutures were removed. On days 14 and 21 after incision, three animals from each group were killed using an overdose of sodium pentobarbital. Using a plexiglass template, a minimum of two samples of full-thickness skin were harvested perpendicular to the long axis of the wound for tensile strength determination. The skin samples were 9.0 mm wide at the wound by 2.0 cm long.
# Tensile Strength Determination. The standard wound samples for each treatment cohort were examined for tensile strength by pulling the individual wounds apart in an Instron 4201 (Universal Testing instruments, Instron Engineering Co., Canton, Mass.) material tester. Special clamps were used to securely grip the tissue to avoid slippage as the wounds were pulled at a standard cross speed of 25 mm/min. The tensile strength of healthy skin was measured in killed animals from each group.
# Effect of BAC-3 on Tensile Strength of Incision Wounds (FIG. 3) with and without chlorhexidine hydrochloride. The tensile strength of incision wounds was measured 21 days after wounding. […]
# [6] = system: WKY rats; details: cited from earlier work
# [7] = system: WKY rats; details: cited from earlier work; remark: listed apart in the source
smiles,measurement,setting,value
Cc1nc2n(c(=O)c1CCN1CCC(c3noc4cc(F)ccc34)CC1)CCCC2 [risperidone],PCP-induced enhancement of immobility in the forced swimming test,[1]; mice,attenuated
"[H]/N=C(\N/C(=N/[H])NCCCCCCNC(=N)NC(=N)Nc1ccc(Cl)cc1)Nc1ccc(Cl)cc1 [chlorhexidine hydrochloride, reference compound]",wound irritation,"[2]; 1% chlorhexidine hydrochloride in combination with BAC-3, rats scratched lower and upper part of burn wounds",irritated wounds
"CCCCCCCC(CC(=O)O)OC(=O)CC(CCCCCCC)OC1OC(C)C(O)C(O)C1OC1OC(C)C(O)C(O)C1O [BAC-3, (α-L-rhamnopyranosyl-(1,2)-α-L-rhamnopyranosyl)-3-hyroxydecanoyl-3-hydroxydecanoic acid]",collagen and fibrotic lesions after treatment was finished,[3],disappeared
same,treated skin lesions one year after the treatment,[3]; one year after,appear normal
same,patient's condition,"[3]; venous ulcer, left leg",significantly improved
same,time to whole epithelization in all animals,[4],30 days
same,tensile strength of incision wounds vs corresponding vehicle,[5],significantly lower
same,rate of burn wound closure (decrease in wound size) vs vehicle alone,"[2]; 0.1% BAC-3 in eucerin, without chlorhexidine, twice daily, days 14-45, FIG. 1",significantly faster
same,extent of burn wound closure (wound size) vs vehicle alone,"[2]; 0.1% BAC-3 in eucerin, without chlorhexidine, days 14, 21 and 28, p<0.05 by ANOVA, FIG. 2",significantly smaller
same,body weights among the treatment groups,"[2]; 1% and 0.1% BAC-3 in eucerin vs vehicle, twice daily, 45 days",no significant differences
same,crust formation,"[2]; between all groups (1% and 0.1% BAC-3, with or without chlorhexidine, placebo), 45 days",no significant differences
same,granulation tissue,[2]; group 1-A: 1% BAC-3 in ointment twice daily,prominently developed
same,hair growth of dead skin during the healing period,"[2]; group 1-A: 1% BAC-3 in ointment, compared to the other groups",very prominent
same,re-epithelization in the middle part of the burn wounds,[2]; group 1-B: 0.1% BAC-3 in ointment twice daily,faster
same,mean value of collagen tissue,"[2]; group 1 A: 1% BAC-3, without chlorhexidine",8.48 mm^2
same,mean value of collagen concentration relative to group 1 D (placebo),[2]; group 1 A: 1% BAC-3,131.26
same,mean value of collagen tissue,"[2]; group 1 B: 0.1% BAC-3, without chlorhexidine",5.15 mm^2
same,mean value of collagen concentration relative to group 1 D (placebo),[2]; group 1 B: 0.1% BAC-3,79.72
same,granulation tissue,[2]; group 2-A: 1% BAC-3 in ointment plus 1% chlorhexidine hydrochloride twice daily,prominently developed
same,re-epithelization in the middle part of the burn wounds,[2]; group 2-B: 0.1% BAC-3 in ointment plus 1% chlorhexidine hydrochloride twice daily,faster
"c1ccc(C2(N3CCCCC3)CCCCC2)cc1 [PCP, phencyclidine]",forced swimming-induced immobility,"[1]; mice treated repeatedly with PCP (10 mg/kg per day S.C.), same stress again",enhanced
same,persistence of the enhancing effect on immobility after withdrawal of the drug,"[1]; mice, PCP 10 mg/kg per day S.C.",at least 21 days
CNCCCN1c2ccccc2CCc2ccccc21 [desipramine],immobility in the forced swim test,[6],reduces immobility
same,incidence of stress ulcer,[7],reduces the incidence of stress ulcer
Cc1nc2sccn2c(=O)c1CCN1CCC(=C(c2ccc(F)cc2)c2ccc(F)cc2)CC1 [ritanserin],PCP-induced enhancement of immobility in the forced swimming test,[1]; mice,attenuated
